Test results as given in PMC4891657, “Orexin 2 Receptor Antagonism is Sufficient to Promote NREM and REM Sleep from Mouse to Man” (Scientific Reports, 2016).

System: sleep/wake stages
Assay: Polysomnography in telemetered Sprague-Dawley rats
Type: in vivo, rat
Experimental: MK-1064 promoted both REM and NREM sleep in telemetered rats in a time-of-day-dependent manner.
Figure 2 MK-1064 dose-dependently promotes both NREM and REM sleep during the active phase in rats. Mean time in active wake, light sleep (LS), SWS, and REM sleep in adult Sprague-Dawley rats monitored for 2 hours post-dose. MK-1064 (5, 10, or 20 mg/kg) or vehicle (20% vitamin E TPGS, orally) was administered in a balanced crossover design such that each animal received drug and vehicle treatments (7 consecutive days). […] Mean within-subject change relative to vehicle ± SEM is shown (*, ***p < 0.05 < 0.001, respectively; one sample t-test for repeated measures compared with vehicle).
The mean time spent in sleep stages was determined in radio-telemetry–implanted mice, rats, and dogs, as described previously. Continuous PSG recordings were performed following oral MK-1064 or vehicle (20% vitamin E d-alpha tocopheryl polyethylene glycol 1000 succinate [TPGS]) administration. In rodents, electrocorticogram (ECoG) and electromyogram (EMG) and locomotor activity measured via radio-telemetry were scored in 10 second epochs to define light sleep (LS; no movement, moderate EMG tone, theta with <50% delta ECoG [0.5–4 Hz]), slow wave sleep (SWS; no gross movement, reduced EMG, >50% delta ECoG) and rapid eye movement sleep (REM; no movement, little to no EMG activity, primarily theta ECoG [4–7 Hz] activity)[42]. Scored data were then grouped and compiled according to condition (vehicle or compound treatment) averaged over the indicated times (30 minutes or 2 hours) and analyzed statistically as previously described[1][14][40][42] (see below). Canine sleep was scored similarly except that electrooculogram (EOG) recordings were used to define and distinguish REM sleep (high frequency EOG, no locomotor, little to no EMG activity, theta ECoG) from non-REM I (NREM I; little to no EOG activity, no movement, moderate EMG tone, <50% delta ECoG) and NREM II sleep (little to no EOG activity, no gross movement, reduced EMG, >50% delta ECoG), and analyzed as described previously.
In adult male Sprague-Dawley rats (600 g, Taconic Farms, Germantown, NY), MK-1064 (5, 10, or 20 mg/kg) or vehicle was administered orally in a balanced crossover design such that each subject received drug and vehicle treatments (7 consecutive days). […] Data were analyzed using within-subject ANOVA to determine main effects and one sample t-test to compare with vehicle.

How did the “sleep stage changes, late active phase administration” value (ZT 23:00, 1 hour prior to inactive period, 20 mg/kg oral) turn out when COc1ccc(CNC(=O)c2cc(-c3cncc(Cl)c3)cnc2-c2ccccn2)nc1OC [MK-1064, 5″-chloro-N-[(5,6-dimethoxypyridin-2-yl)methyl]-2,2′:5′, 3″-terpyridine-3′-carbo xamide] was run?
Its value is “only SWS reached significance”.

What about the “active wake during the 2 hours following administration” value (mid-active phase (ZT 17:00), 5, 10 and 20 mg/kg oral, 20 mg/kg significant p < 0.05) of the same compound?
Its value is “dose dependently attenuated active wake”.

And the “SWS during the 2 hours following administration” value (mid-active phase, 20 mg/kg oral)?
The value was “increases in SWS”.

And the “REM sleep during the 2 hours following administration” value (mid-active phase, 10 and 20 mg/kg oral)?
Its value is “increases in REM sleep”.
